Measured values from patent EP0992240A1, “THERAPEUTIC AGENT FOR ERECTION FAILURE” (MOCHIDA PHARMACEUTICAL CO., LTD., priority 1997, dated 1998).

Key:
PDE type V = target: T1, PDE type V (Canis lupus familiaris, UniProt O77746); assay: PDE inhibiting activity, type V; format: biochemical, dog; details: PDE purified from canine aorta; 1 µM substrate cGMP or cAMP; read-out: Inhibition Activity IC50 (µM) Type V
T1 construct: By elution with a sodium chloride gradient (0 - 0.4 M), PDE types V and III were separated from the other isozymes; from tissue; host or cells: canine aorta

PDE type I = assay: PDE inhibiting activity, type I; format: biochemical, dog; details: PDE purified from canine aorta; 1 µM substrate cGMP or cAMP; read-out: Inhibition Activity IC50 (µM) Type I
Method: On the basis of the method of Lugnier et al. (Biochem. Pharmacol., 35, 1743-1751, 1986), PDE was purified from the aorta in a dog. The canine aorta was minced and homogenized with a Waring Blender and a glass homogenizer in six volumes of a Tris-HCl buffer solution (pH 7.5, 20 mM) containing 2 mM magnesium acetate, 5 mM ethylenediaminetetraacetic acid (EDTA), 100 µg/mL of phenylmethylsulforyl fluoride and 15 mM 2-mercaptoethanol (2-ME), and centrifuged at 1200 x g for 30 min. The supernatant was separated and salted out with ammonium sulfate which was added to 45% saturation. The resulting precipitated fraction was resuspended in a Tris-HCl buffer solution (pH 7.5, 20 mM) containing 2 mM magnesium acetate and 1 mM 2-ME, dialyzed overnight and applied to a DEAE-trisacryl column (DEAE […] M:IBF). By elution with a sodium chloride gradient (0 - 0.4 M), PDE types V and III were separated from the other isozymes. The supernatant fraction of 45% saturated ammonium sulfate was further mixed with ammonium sulfate to 65% saturation and salted out. The resulting precipitated fraction was similarly applied to the DEAE-trisacryl column and eluted by a sodium chloride gradient (0 - 0.4 M) so as to separate PDE type I.
The thus obtained PDE types V, III and I were measured for their activity in accordance with the method of Thompson et al. (Adv. Cyclic Nucleotide Res., 10, 69-72, 1979) and the method of Wells et al. (Biochim. Biophys. Acta, 384, 430-443, 1975). Specifically, a purified PDE sample was added to 50 mM Tris-HCl buffer solution (pH 7.5) containing 1 µM of substrate cGMP or cAMP (containing tritium-labelled cGMP or cAMP), 1 mM EGTA and 2 mM magnesium acetate. For PDE activity measurement, enzymatically produced 5' GMP or 5' AMP was further hydrolyzed into guanosine or adenosine with snake venom and separated from the substrate by means of an ion-exchange resin (Dowex 1-X2), followed by measuring with a scintillation counter. The activity of each test compound was determined as a percentage of the PDE activity measured when it was added as a dimethyl sulfoxide solution (DMSO) and its IC50 (50% inhibition concentration) was calculated by the probit method. The final concentration of DMSO was adjusted to be no more than 2% in consideration of the effect on PDE activity.

Row | Compound | IC50 (PDE type V) | IC50 (PDE type I)
1 | Cc1cn2c3ccc(Br)cc3c3cc(OCC(=O)OC(C)C)cc(c1=O)c32 [Example 16] | 0.0017 µM | > 30 µM
2 | O=c1ccn2c3ccc(Br)cc3c3cc(O)cc1c32 [Example 20, 10-bromo-2-hydroxy-4H-pyrido[3,2,1-jk]carbazol-4-one] | 0.03 µM | > 100 µM
3 | O=c1ccn2c3ccc(Br)cc3c3cc(OCc4ccccc4)cc1c32 [Example 26, 2-benzyloxy-10-bromo-4H-pyrido[3,2,1-jk]carbazol-4-one] | 0.01 µM | > 30 µM
4 | O=c1c(Cc2cccnc2)cn2c3cc(Br)ccc3c3cc(OCc4cncc(CO)c4)cc1c32 [Example 36, 9-bromo-2-(5-hydroxymethyl-3-pyridylmethyloxy)-5-(3-pyridylmethyl)-4H-pyrido[3,2,1-jk]carbazol-4-one] | 0.021 µM | > 30 µM
5 | Cc1cn2c3ccc(Br)cc3c3cc(O)cc(c1=O)c32 [Example 14, 10-bromo-2-hydroxy-5-methyl-4H-pyrido[3,2,1-jk]carbazol-4-one] | 0.1 µM | > 300 µM
6 | O=c1ccn2c3ccc(Cl)cc3c3cc(Cl)cc1c32 [Example 48, 2,10-dichlor-4H-pyrido[3,2,1-jk]carbazol-4-one] | – | > 30 µM
7 | CC(C)(C)OC(=O)COc1cc2c(=O)c(Cc3cccnc3)cn3c4cc(Br)ccc4c(c1)c23 [Example 32, 9-bromo-2-t-butoxycarbonylmethyloxy-5-(3-pyridylmethyl)-4H-pyrido[3,2,1-jk]carbazol-4-one] | 0.091 µM | > 30 µM
8 | O=c1c(Cc2cccnc2)cn2c3ccc(Br)cc3c3cc(OCc4ccccc4)cc1c32 [Example 11, 2-benzyloxy-10-bromo-5-(3-pyridylmethyl)-4H-pyrido[3,2,1-jk]carbazol-4-one] | 0.11 µM | > 30 µM
9 | O=c1c(Cc2ccccc2)cn2c3cc(Br)ccc3c3cc(O)cc1c32 [Example 40, 5-benzyl-9-bromo-2-hydroxy-4H-pyrido[3,2,1-jk]carbazol-4-one] | 0.009 µM | > 30 µM
10 | O=c1ccn2c3ccc(Br)cc3c3cc(OCc4cccnc4)cc1c32 [Example 25, 10-bromo-2-(3-pyridylmethyloxy)-4H-pyrido[3,2,1-jk]carbazol-4-one] | 0.011 µM | > 100 µM
11 | COc1cc2c(=O)c(Cc3cccnc3)cn3c4cc(Br)ccc4c(c1)c23 [Example 30, 9-bromo-2-methoxy-5-(3-pyridylmethyl)-4H-pyrido[3,2,1-jk]carbazol-4-one] | 0.0047 µM | > 30 µM
12 | CC(=O)OCc1cncc(COc2cc3c(=O)c(Cc4cccnc4)cn4c5cc(Br)ccc5c(c2)c34)c1 [Example 35, 2-(5-acetoxymethyl-3-pyridylmethyloxy)-9-bromo-5-(3-pyridylmethyl)-4H-pyrido[3,2,1-jk]carbazol-4-one] | 0.088 µM | > 30 µM

The next lines start with the values.

Row | IC50 (PDE type V) | IC50 (PDE type I) | Compound
13 | 0.002 µM | > 30 µM | CCOC(=O)COc1cc2c(=O)ccn3c4ccc(Br)cc4c(c1)c23 [Example 23, 10-bromo-2-ethoxycarbonylmethyloxy-4H-pyrido[3,2,1-jk]carbazol-4-one]
14 | 0.36 µM | 48 µM | O=c1c(Cc2cccnc2)cn2c3ccccc3c3cc(O)cc1c32 [Example 41, 2-hydroxy-5-(3-pyridylmethyl)-4H-pyrido[3,2,1-jk]carbazol-4-one]
15 | 0.19 µM | > 30 µM | O=C(O)COc1cc2c(=O)ccn3c4ccc(Br)cc4c(c1)c23 [Example 24, 10-bromo-2-carboxymethyloxy-4H-pyrido[3,2,1-jk]carbazol-4-one]
16 | 0.059 µM | > 30 µM | O=c1c(Cc2cccnc2)cn2c3ccc(Br)cc3c3cc(OCc4cccnc4)cc1c32 [Example 10, 10-bromo-5-(3-pyridylmethyl)-2-(3-pyridylmethyloxy)-4H-pyrido[3,2,1-jk]carbazol-4-one]
17 | 0.0035 µM | > 30 µM | CCOC(=O)COc1cc2c(=O)c(C)cn3c4ccc(Br)cc4c(c1)c23 [Example 17, 10-bromo-2-ethoxycarbonylmethyloxy-5-methyl-4H-pyrido[3,2,1-jk]carbazol-4-one]
